Reference: the supplement of paper PMC10627819

Tests used:
Settings in all cases: main component drawn
B. subtilis 168 [1] = experiment: fitness (endpoint OD595 vs no drug) (fraction); higher = more growth
In short: (§1)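 Fitness expresses the optical density reached at the stationary-phase transition as a fraction of the robust mean of no-drug control wells. It is capped at 1. Measurements were OD595 every 30 min for 14 h at 37 °C after inoculation of 384-well plates at OD595 0.01 (30 µl, or 55 µl for S. pneumoniae), minus the first reading.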

S. aureus Newman [2] = experiment: as above
In short: as §1

B. subtilis 168 [3] = experiment: Bliss interaction score (quartile over a dose matrix) (fitness difference); higher = more antagonism (negative = synergy)
In short: (§2)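 The Bliss score is observed minus expected fitness under the product model, reported as quartiles over technical, biological and donor/recipient replicates. Fitness is the OD595 at entry into stationary phase divided by the plate's robust no-drug mean and capped at 1. Single-drug fitness was inferred from combination data.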

S. aureus DSM 20231 = experiment: as above
In short: as §2

S. aureus Newman [4] = experiment: as above
In short: as §2

S. pneumoniae D39V = experiment: as above
In short: as §2
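For Bliss interaction score (quartile over a dose matrix) in this document: first quartile when negative (synergy) and third quartile when positive (antagonism).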

CC[C@H](C)[C@H](N)C1=N[C@H](C(=O)N[C@@H](CC(C)C)C(=O)N[C@H](CCC(=O)O)C(=O)N[C@H](C(=O)N[C@H]2CCCCNC(=O)[C@H](CC(N)=O)NC(=O)[C@@H](CC(=O)O)NC(=O)[C@H](Cc3cnc[nH]3)NC(=O)[C@@H](Cc3ccccc3)NC(=O)[C@H]([C@@H](C)CC)NC(=O)[C@@H](CCCN)NC2=O)[C@@H](C)CC)CS1 [Bacitracin] + COc1cccc2c1C(=O)c1c(O)c3c(c(O)c1C2=O)C[C@@](O)(C(=O)CO)C[C@@H]3O[C@H]1C[C@H](N)[C@H](O)[C@H](C)O1 [Doxorubicin]
fitness
Settings	partner 0.625 µg/mL	partner 1.25 µg/mL	partner 2.5 µg/mL
B. subtilis 168 [1], first compound 37.5 µg/mL	0.889	0.851	0.686
B. subtilis 168 [1], first compound 75 µg/mL	0.827	0.792	–
B. subtilis 168 [1], first compound 150 µg/mL	0.691	0.653	–
S. aureus Newman [2], first compound 18.75 µg/mL	0.607	0.598	0.513
S. aureus Newman [2], first compound 75 µg/mL	0.0711	0.0343	0.0074

Settings	Bliss interaction score
B. subtilis 168 [3]	0.0797
S. aureus DSM 20231	0.115
S. aureus Newman [4]	0.0938
S. pneumoniae D39V	-0.0704

CC[C@H](C)[C@H](N)C1=N[C@H](C(=O)N[C@@H](CC(C)C)C(=O)N[C@H](CCC(=O)O)C(=O)N[C@H](C(=O)N[C@H]2CCCCNC(=O)[C@H](CC(N)=O)NC(=O)[C@@H](CC(=O)O)NC(=O)[C@H](Cc3cnc[nH]3)NC(=O)[C@@H](Cc3ccccc3)NC(=O)[C@H]([C@@H](C)CC)NC(=O)[C@@H](CCCN)NC2=O)[C@@H](C)CC)CS1 [Bacitracin] + C[C@@H]1O[C@@H]1P(=O)(O)O [Fosfomycin]
fitness
Settings	first compound 18.75 µg/mL	first compound 37.5 µg/mL	first compound 75 µg/mL	first compound 150 µg/mL
B. subtilis 168 [1], partner 1.562 µg/mL	–	0.697	0.662	0.607
B. subtilis 168 [1], partner 3.124 µg/mL	–	0.61	0.594	0.488
B. subtilis 168 [1], partner 6.248 µg/mL	–	0.501	0.51	0.427
S. aureus Newman [2], partner 0.781 µg/mL	0.507	0.0984	0.0911	–
S. aureus Newman [2], partner 1.562 µg/mL	0.471	–	0.0362	–
S. aureus Newman [2], partner 3.124 µg/mL	0.174	0.0141	0.0222	–

Settings	Bliss interaction score
B. subtilis 168 [3]	0.0941
S. aureus DSM 20231	0.109
S. aureus Newman [4]	0.102
S. pneumoniae D39V	-0.0469

CC[C@H](C)[C@H](N)C1=N[C@H](C(=O)N[C@@H](CC(C)C)C(=O)N[C@H](CCC(=O)O)C(=O)N[C@H](C(=O)N[C@H]2CCCCNC(=O)[C@H](CC(N)=O)NC(=O)[C@@H](CC(=O)O)NC(=O)[C@H](Cc3cnc[nH]3)NC(=O)[C@@H](Cc3ccccc3)NC(=O)[C@H]([C@@H](C)CC)NC(=O)[C@@H](CCCN)NC2=O)[C@@H](C)CC)CS1 [Bacitracin] + C[n+]1ccc(-c2cc[n+](C)cc2)cc1 [Paraquat]
fitness
Settings	first compound 18.75 µg/mL	first compound 37.5 µg/mL	first compound 75 µg/mL	first compound 150 µg/mL
B. subtilis 168 [1], partner 1.25 µg/mL	–	0.931	0.924	0.844
B. subtilis 168 [1], partner 2.5 µg/mL	–	0.886	0.846	0.826
B. subtilis 168 [1], partner 5 µg/mL	–	0.746	0.656	–
S. aureus Newman [2], partner 1.25 µg/mL	0.673	0.276	0.0637	–
S. aureus Newman [2], partner 2.5 µg/mL	0.725	0.315	0.0696	–
S. aureus Newman [2], partner 5 µg/mL	0.669	0.349	0.0708	–

Settings	Bliss interaction score
B. subtilis 168 [3]	0.115
S. aureus DSM 20231	-0.0542
S. aureus Newman [4]	0.0836
S. pneumoniae D39V	0.0921

CC[C@H](C)[C@H](N)C1=N[C@H](C(=O)N[C@@H](CC(C)C)C(=O)N[C@H](CCC(=O)O)C(=O)N[C@H](C(=O)N[C@H]2CCCCNC(=O)[C@H](CC(N)=O)NC(=O)[C@@H](CC(=O)O)NC(=O)[C@H](Cc3cnc[nH]3)NC(=O)[C@@H](Cc3ccccc3)NC(=O)[C@H]([C@@H](C)CC)NC(=O)[C@@H](CCCN)NC2=O)[C@@H](C)CC)CS1 [Bacitracin] + Cc1cc(NS(=O)(=O)c2ccc(N)cc2)no1 [Sulfamethoxazol]
fitness, one replicate
Settings	first compound 18.75 µg/mL	first compound 37.5 µg/mL	first compound 75 µg/mL	first compound 150 µg/mL
B. subtilis 168 [1], partner 0.5 µg/mL	–	0.947	0.998	≥ 1
S. aureus Newman [2], partner 8 µg/mL	0.729	0.454	0.0253	–

fitness
Settings	partner 1 µg/mL	partner 2 µg/mL	partner 4 µg/mL
B. subtilis 168 [1], first compound 37.5 µg/mL	0.856	0.855	0.941
B. subtilis 168 [1], first compound 75 µg/mL	0.832	0.851	0.852
S. aureus Newman [2], first compound 18.75 µg/mL	0.775	0.76	0.819
S. aureus Newman [2], first compound 75 µg/mL	0.0141	0.009	0.0028

Settings	Bliss interaction score
B. subtilis 168 [3]	0.0966
S. aureus DSM 20231	-0.0266
S. aureus Newman [4]	0.104
S. pneumoniae D39V	0.0767

CC[C@H](C)[C@H](N)C1=N[C@H](C(=O)N[C@@H](CC(C)C)C(=O)N[C@H](CCC(=O)O)C(=O)N[C@H](C(=O)N[C@H]2CCCCNC(=O)[C@H](CC(N)=O)NC(=O)[C@@H](CC(=O)O)NC(=O)[C@H](Cc3cnc[nH]3)NC(=O)[C@@H](Cc3ccccc3)NC(=O)[C@H]([C@@H](C)CC)NC(=O)[C@@H](CCCN)NC2=O)[C@@H](C)CC)CS1 [Bacitracin] + Cc1ncc([N+](=O)[O-])n1CCO [Metronidazole]
fitness
Settings	partner 0.625 µg/mL	partner 0.781 µg/mL	partner 1.25 µg/mL	partner 1.562 µg/mL	partner 2.5 µg/mL	partner 3.124 µg/mL
B. subtilis 168 [1], first compound 37.5 µg/mL	0.956	–	0.931	–	0.902	–
B. subtilis 168 [1], first compound 75 µg/mL	0.964	–	0.931	–	0.903	–
B. subtilis 168 [1], first compound 150 µg/mL	–	–	–	–	0.811	–
S. aureus Newman [2], first compound 18.75 µg/mL	0.741	0.702	0.757	0.716	0.743	0.687
S. aureus Newman [2], first compound 37.5 µg/mL	0.308	0.21	0.243	0.243	0.181	0.26
S. aureus Newman [2], first compound 75 µg/mL	0.0054	0.03	0.0112	0.0279	0.0054	0.0683

Settings	Bliss interaction score
B. subtilis 168 [3]	0.103
S. aureus DSM 20231	0.0734
S. aureus Newman [4]	0.0714
S. pneumoniae D39V	0.127

CC[C@H](C)[C@H](N)C1=N[C@H](C(=O)N[C@@H](CC(C)C)C(=O)N[C@H](CCC(=O)O)C(=O)N[C@H](C(=O)N[C@H]2CCCCNC(=O)[C@H](CC(N)=O)NC(=O)[C@@H](CC(=O)O)NC(=O)[C@H](Cc3cnc[nH]3)NC(=O)[C@@H](Cc3ccccc3)NC(=O)[C@H]([C@@H](C)CC)NC(=O)[C@@H](CCCN)NC2=O)[C@@H](C)CC)CS1 [Bacitracin] + Cc1onc(-c2ccccc2)c1C(=O)N[C@@H]1C(=O)N2[C@@H]1SC(C)(C)[C@@H]2C(=O)O [Oxacillin]
fitness
Settings	first compound 18.75 µg/mL	first compound 37.5 µg/mL	first compound 75 µg/mL
B. subtilis 168 [1], partner 0.002 µg/mL	–	0.958	0.959
B. subtilis 168 [1], partner 0.004 µg/mL	–	0.955	0.913
B. subtilis 168 [1], partner 0.008 µg/mL	–	0.924	0.835
S. aureus Newman [2], partner 0.0156 µg/mL	0.534	0.0937	0.0408
S. aureus Newman [2], partner 0.0312 µg/mL	–	0.0243	0.0443
S. aureus Newman [2], partner 0.0625 µg/mL	0.0815	0.0177	0.0488

fitness, B. subtilis 168 [1], one replicate
Settings	partner 0.0078 µg/mL	partner 0.0155 µg/mL	partner 0.031 µg/mL	partner 0.075 µg/mL	partner 0.15 µg/mL	partner 0.3 µg/mL
first compound 37.5 µg/mL	0.79	0.782	0.742	0.58	0.0238	0.0295
first compound 75 µg/mL	0.778	0.76	0.701	0.496	0.0193	0.0177
first compound 150 µg/mL	0.447	0.36	0.316	0.242	0.0097	0.0106

Settings	Bliss interaction score
B. subtilis 168 [3]	-0.0456
S. aureus DSM 20231	0.0803
S. aureus Newman [4]	-0.118
S. pneumoniae D39V	-0.107

CC[C@H](C)[C@H](N)C1=N[C@H](C(=O)N[C@@H](CC(C)C)C(=O)N[C@H](CCC(=O)O)C(=O)N[C@H](C(=O)N[C@H]2CCCCNC(=O)[C@H](CC(N)=O)NC(=O)[C@@H](CC(=O)O)NC(=O)[C@H](Cc3cnc[nH]3)NC(=O)[C@@H](Cc3ccccc3)NC(=O)[C@H]([C@@H](C)CC)NC(=O)[C@@H](CCCN)NC2=O)[C@@H](C)CC)CS1 [Bacitracin] + O=C(O)c1cn(C2CC2)c2cc(N3CCNCC3)c(F)cc2c1=O [Ciprofloxacin]
fitness
Settings	first compound 18.75 µg/mL	first compound 37.5 µg/mL	first compound 75 µg/mL	first compound 150 µg/mL
B. subtilis 168 [1], partner 0.0098 µg/mL	–	0.88	0.889	0.897
B. subtilis 168 [1], partner 0.0195 µg/mL	–	0.718	0.659	0.559
B. subtilis 168 [1], partner 0.039 µg/mL	–	0.201	0.0773	0.0355
S. aureus Newman [2], partner 0.0375 µg/mL	0.524	0.199	0.0079	–
S. aureus Newman [2], partner 0.075 µg/mL	–	0.0916	0.013	–
S. aureus Newman [2], partner 0.15 µg/mL	0.0536	0.0155	0.0083	–

Settings	Bliss interaction score
B. subtilis 168 [3]	-0.0665
S. aureus DSM 20231	-0.0438
S. aureus Newman [4]	-0.0418
S. pneumoniae D39V	-0.13

CC[C@H](C)[C@H](N)C1=N[C@H](C(=O)N[C@@H](CC(C)C)C(=O)N[C@H](CCC(=O)O)C(=O)N[C@H](C(=O)N[C@H]2CCCCNC(=O)[C@H](CC(N)=O)NC(=O)[C@@H](CC(=O)O)NC(=O)[C@H](Cc3cnc[nH]3)NC(=O)[C@@H](Cc3ccccc3)NC(=O)[C@H]([C@@H](C)CC)NC(=O)[C@@H](CCCN)NC2=O)[C@@H](C)CC)CS1 [Bacitracin] + O=C(O[C@@H]1Cc2c(O)cc(O)cc2O[C@@H]1c1cc(O)c(O)c(O)c1)c1cc(O)c(O)c(O)c1 [EGCG]
fitness
Settings	first compound 18.75 µg/mL	first compound 37.5 µg/mL	first compound 75 µg/mL	first compound 150 µg/mL
B. subtilis 168 [1], partner 6.25 µg/mL	–	0.876	0.885	0.827
B. subtilis 168 [1], partner 12.5 µg/mL	–	–	–	0.562
S. aureus Newman [2], partner 12.5 µg/mL	0.73	0.43	0.0108	–
S. aureus Newman [2], partner 25 µg/mL	0.632	0.283	0.0073	–
S. aureus Newman [2], partner 50 µg/mL	0.444	0.192	0.0184	–

Settings	Bliss interaction score
B. subtilis 168 [3]	0.0767
S. aureus DSM 20231	-0.0223
S. aureus Newman [4]	0.124
S. pneumoniae D39V	-0.0707
